We go through 16 compounds from patent publication US20080318788A1, “Microcapsule” (priority 2005, published 2008).

The first data set can be described thus: Photo stabilisation study of COMPOUND (V) in gelatine microcapsules exposed to daylight, HPLC assay. The data set is classed as physicochemical. Conditions: Chocolate Brown dyed gelatine capsules, 88 hours exposure to daylight (8 hours daylight over 11 days). How it is done:
The HPLC system was from Waters comprising of two 510 pumps, a 717 plus Autosampler, a System Interface Module, a Lambda-Max 480 detector and Millennium Chromatography Manager software. Chromatography was achieved on a Zorbax ODS 5 μm C18 analytical column of dimension 4.6×250 mm internal diameter maintained at 35° C. Mobile phases were unmodified water (Milli-Q grade) in reservoir A and unmodified acetonitrile in reservoir B. Linear gradient elution was used with 70 to 90% B over the first 10 minutes, then 100% B for 3 minutes and returning to 70% B over 4 minutes. Injection cycle time was 20 minutes with a flow rate of 2 ml/min. The samples were either dissolved in acetonitrile or diethyl ether and 10 μl volume injected on to the column which was maintained at 35° C. Prior to use, mobile phase were degassed under vacuum with sonication and continuously sparged with helium. The naphthoquinones were detected by measurement of UV absorbance at 269 nm.
A batch of gelatine microcapsules containing 300 mg of COMPOUND (V) in 15 ml of Exxsol® D100 was produced.
The capsule slurry was washed repeatedly with water to remove debris and filtered to obtain a wet cake. An aliquot of the wet cake (11.3 g) was made up to 50 ml and dyed brown with Chocolate Brown (500 mg, equivalent to 10 mg/ml solution). Aliquots (200 μl) of microcapsule slurry of brown and undyed capsules were applied to glass microscope slides in duplicate. The slurry from each batch was spread to form a monolayer of microcapsules on each slide. The slides were air dried in a dark at room temperature (≅21° C.) and exposed to daylight on a south-facing windowsill for various time periods. Two slides from each batch were analysed per time point post of exposure. Unexposed slides stored in the dark were used as time zero reference.
The contents of the capsules were extracted by rupturing the capsules, by rolling a glass rod on the slides, and washing both the rod and the slide with diethyl ether. The extracts were made up to 10 ml and assayed by HPLC.
As for `CC(=O)OC1=C(C(C)CCC[Si](C)(C)C)C(=O)c2ccccc2C1=O` (stereo not shown) [COMPOUND (V)], the “amount of COMPOUND (V) remaining, % of the initial amount” value is around 80%.

The same data set, now with this note: undyed impervious gelatine capsules, 6 hours exposure to daylight.
Consider `CC(=O)OC1=C(C(C)CCC[Si](C)(C)C)C(=O)c2ccccc2C1=O` (stereo not shown) [COMPOUND (V)], for which the “amount of COMPOUND (V) remaining, % of the initial amount” value came to 60%.

Still in this data set, the particulars now being: undyed impervious gelatine capsules, 16 hours exposure to daylight.
As for `CC(=O)OC1=C(C(C)CCC[Si](C)(C)C)C(=O)c2ccccc2C1=O` (stereo not shown) [COMPOUND (V)], the “amount of COMPOUND (V) remaining, % of the initial amount” value was found to be 23%.

Staying with this data set, now noted: undyed impervious gelatine capsules, 40 hours exposure to daylight (8 hours daylight over 5 days).
On to `CC(=O)OC1=C(C(C)CCC[Si](C)(C)C)C(=O)c2ccccc2C1=O` (stereo not shown) [COMPOUND (V)], for which the “amount of COMPOUND (V) remaining, % of the initial amount” value amounted to 6%.

The next data set in a line: Water solubility of UV protection dyes.
Settings: not given
Regarding `CC1=NN(c2ccc(S(=O)(=O)[O-])cc2)C(=O)C1N=Nc1ccc(-c2ccc(N=Nc3ccc(OS(=O)(=O)c4ccc(C)cc4)cc3)c(S(=O)(=O)[O-])c2)cc1.[Na+].[Na+]` (stereo not shown) [Acid Orange 63], the “WATER SOLUBILITY” value was 50 mg/mL.
Consider `Cc1nn(-c2ccccc2)c([O-])c1N=Nc1cc([N+](=O)[O-])cc(S(=O)(=O)[O-])c1[O-].[Cr+3].[Na+].[OH-]` [Acid Orange 74], for which the “WATER SOLUBILITY” value was found to be 20 mg/mL.
Same read-out and setting: the value for `Cc1cc(N=Nc2ccc(C)c(N=Nc3cc(C)c(N)cc3N)c2)c(N)cc1N` [Bismark Brown R] was 70 mg/mL; that for `Nc1ccc(N=Nc2cccc(N=Nc3ccc(N)cc3N)c2)c(N)c1` [Bismark Brown Y] was 50 mg/mL.
Same read-out and setting: the value for `O=S1(=O)OC(c2ccc(O)c(Cl)c2)(c2ccc(O)c(Cl)c2)c2ccccc21` [Chlorophenol Red] was 60 mg/mL; that for `O=S(=O)([O-])c1ccc2c(N=Nc3ccccc3)c(O)ccc2c1.[Na+]` [Crocein Orange G] was 40 mg/mL; that for `CC(=O)Nc1ccc2nc3c4ccccc4c(=N)cc-3oc2c1.Cl` [Darrow Red] was 1 mg/mL.
Same read-out and setting: the value for `CCN(CC)c1ccc(N=Nc2ccc(S(=O)(=O)[O-])cc2)cc1.[K+]` [Ethyl Orange] was 100 mg/mL; that for `CCN(CC)c1ccc(N=Nc2ccccc2C(=O)O)cc1` [Ethyl Red] was 3 mg/mL; that for `Nc1cc(N)c(N=Nc2cccc3c(S(=O)(=O)O)cccc23)cc1N=Nc1cc([N+](=O)[O-])ccc1O.[Na]` [Mordant Brown 1] was 60 mg/mL.
On to `Cc1cc(N=Nc2cc([N+](=O)[O-])cc([N+](=O)[O-])c2O)c(N)cc1N` [Mordant Brown 4], for which the “WATER SOLUBILITY” value stood at 60 mg/mL.
Turning to `Nc1cc(N)c(S(=O)(=O)[O-])cc1N=Nc1cc([N+](=O)[O-])ccc1O.[Na+]` [Mordant Brown 33], the “WATER SOLUBILITY” value worked out at 20 mg/mL.
On the same count and under the same terms, next, `Nc1cc(N)c(N=Nc2cc([N+](=O)[O-])cc([N+](=O)[O-])c2O)cc1Cl` [Mordant Brown 48]: 40 mg/mL; `Cc1cc(O)ccc1C1(c2ccc(O)cc2C)OS(=O)(=O)c2ccccc21` [m-Cresol Purple]: 2 mg/mL.
On the same count and under the same terms, next, Acid Orange 51: 30 mg/mL.
